The record followed here is patent publication US20060159776A1, “Compositions comprising components coated with a liquid impermeable but gas permeable layer, use thereof for treating cutaneous and other exocrine gland diseases” (priority 2003, published 2006).

The subject of the data set is adults suffering from diabetes type 2. The data set is described as follows: Four-week substitution trial in adults with diabetes type 2 controlled by metformin alone.

Entries after “also recorded” stand apart in the source; their conditions may differ.

For `CN(C)C(=N)N=C(N)N` [metformin, Metformin], the “fasting plasma glucose (FPG) control” value (before the trial, on regular metformin 500 mg twice daily to 850 mg three times daily, five adults) is “below 8 mmol/l”. The “side-effects of taking metformin” value (regular metformin, metallic taste three of five, abdominal discomfort all five) is on record as “metallic taste in the mouth occasionally; also recorded: occasional abdominal discomfort”.
